Data on 18 molecules can be found in patent publication US20250205344A1, “2,4-DIOXOTETRAHYDROPYRIMIDINYL DERATIVES AS DEGRONS IN PROTACS” (GLAXOSMITHKLINE INTELLECTUAL PROPERTY DEVELOPMENT LIMITED, priority 2022, published 2025).

Counter-ions that a name gives are not always drawn.

The target in the test is T1, Androgen Receptor (Homo sapiens, UniProt P10275, T878A).
T1 construct: the AR gene was modified, using CRISPR/Cas9 editing, so the expressed AR protein included an 11 amino acid HiBiT tag; endogenous in cells; host or cells: clonal LnCaP-derived line, AR gene edited by CRISPR/Cas9
As to the kind of experiment: Androgen Receptor Degradation Assay (Nano-Glo HiBiT). It counts as cell-based. The note with it: 18 h, HiBiT-tagged AR in human LnCaP cells; for Dmax: LNCaP, read-out: mean asymptote max. In short, it runs like this:
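LnCaP cells with CRISPR-knocked-in N-terminal HiBiT-tagged AR (10,000/well) treated 18 h at 37 °C with PROTACs over 11 threefold concentrations; lytic HiBiT luminescence normalised to DMSO (0%) and cell-free (100%) controls. Relative DC50 = 4-parameter fit inflection; absolute DC50 = 50% degradation interpolation; Dmax = maximum observed degradation.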
(In general: With HiBiT, luminescence reflects the tagged protein that the partner subunit can reach.)

T1 sequence (P10275 whole entry T878A): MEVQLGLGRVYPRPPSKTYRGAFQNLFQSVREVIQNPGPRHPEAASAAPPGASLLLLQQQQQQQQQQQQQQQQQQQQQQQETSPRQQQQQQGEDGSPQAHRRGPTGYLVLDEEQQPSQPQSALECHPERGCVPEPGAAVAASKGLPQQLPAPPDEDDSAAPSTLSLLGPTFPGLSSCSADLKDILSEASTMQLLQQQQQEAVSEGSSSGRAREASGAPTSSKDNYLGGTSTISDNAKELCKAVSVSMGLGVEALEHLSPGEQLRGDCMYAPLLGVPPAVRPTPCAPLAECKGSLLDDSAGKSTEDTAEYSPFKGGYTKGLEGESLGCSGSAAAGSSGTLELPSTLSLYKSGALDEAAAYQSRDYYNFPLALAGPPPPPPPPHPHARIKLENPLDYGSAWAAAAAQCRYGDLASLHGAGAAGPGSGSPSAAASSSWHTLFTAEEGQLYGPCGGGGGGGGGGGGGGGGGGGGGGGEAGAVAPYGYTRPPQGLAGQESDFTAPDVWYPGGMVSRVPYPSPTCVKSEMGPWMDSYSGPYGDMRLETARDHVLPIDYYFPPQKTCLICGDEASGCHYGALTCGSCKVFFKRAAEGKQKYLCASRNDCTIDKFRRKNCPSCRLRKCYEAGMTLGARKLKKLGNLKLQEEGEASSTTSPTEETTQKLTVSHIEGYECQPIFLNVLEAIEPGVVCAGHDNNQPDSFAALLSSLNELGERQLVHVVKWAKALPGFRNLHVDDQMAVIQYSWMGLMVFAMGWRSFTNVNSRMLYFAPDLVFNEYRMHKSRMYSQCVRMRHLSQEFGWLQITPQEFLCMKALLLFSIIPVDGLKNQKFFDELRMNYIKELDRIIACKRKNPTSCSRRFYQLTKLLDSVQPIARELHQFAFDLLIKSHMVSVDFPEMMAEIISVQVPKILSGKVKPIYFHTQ
T1 sequence (Q96SW2 whole entry partner): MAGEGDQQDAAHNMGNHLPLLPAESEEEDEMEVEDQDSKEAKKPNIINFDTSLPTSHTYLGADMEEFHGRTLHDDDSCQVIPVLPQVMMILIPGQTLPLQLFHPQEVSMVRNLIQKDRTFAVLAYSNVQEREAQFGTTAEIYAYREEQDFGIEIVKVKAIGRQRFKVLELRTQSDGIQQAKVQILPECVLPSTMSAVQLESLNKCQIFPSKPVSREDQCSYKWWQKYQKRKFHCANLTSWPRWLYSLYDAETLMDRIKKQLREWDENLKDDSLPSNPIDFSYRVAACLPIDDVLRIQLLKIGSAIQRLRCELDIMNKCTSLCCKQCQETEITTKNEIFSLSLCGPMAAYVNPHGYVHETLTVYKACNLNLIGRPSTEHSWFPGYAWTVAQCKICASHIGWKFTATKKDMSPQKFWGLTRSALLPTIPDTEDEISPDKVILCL
T1 sequence (Q16531 whole entry partner): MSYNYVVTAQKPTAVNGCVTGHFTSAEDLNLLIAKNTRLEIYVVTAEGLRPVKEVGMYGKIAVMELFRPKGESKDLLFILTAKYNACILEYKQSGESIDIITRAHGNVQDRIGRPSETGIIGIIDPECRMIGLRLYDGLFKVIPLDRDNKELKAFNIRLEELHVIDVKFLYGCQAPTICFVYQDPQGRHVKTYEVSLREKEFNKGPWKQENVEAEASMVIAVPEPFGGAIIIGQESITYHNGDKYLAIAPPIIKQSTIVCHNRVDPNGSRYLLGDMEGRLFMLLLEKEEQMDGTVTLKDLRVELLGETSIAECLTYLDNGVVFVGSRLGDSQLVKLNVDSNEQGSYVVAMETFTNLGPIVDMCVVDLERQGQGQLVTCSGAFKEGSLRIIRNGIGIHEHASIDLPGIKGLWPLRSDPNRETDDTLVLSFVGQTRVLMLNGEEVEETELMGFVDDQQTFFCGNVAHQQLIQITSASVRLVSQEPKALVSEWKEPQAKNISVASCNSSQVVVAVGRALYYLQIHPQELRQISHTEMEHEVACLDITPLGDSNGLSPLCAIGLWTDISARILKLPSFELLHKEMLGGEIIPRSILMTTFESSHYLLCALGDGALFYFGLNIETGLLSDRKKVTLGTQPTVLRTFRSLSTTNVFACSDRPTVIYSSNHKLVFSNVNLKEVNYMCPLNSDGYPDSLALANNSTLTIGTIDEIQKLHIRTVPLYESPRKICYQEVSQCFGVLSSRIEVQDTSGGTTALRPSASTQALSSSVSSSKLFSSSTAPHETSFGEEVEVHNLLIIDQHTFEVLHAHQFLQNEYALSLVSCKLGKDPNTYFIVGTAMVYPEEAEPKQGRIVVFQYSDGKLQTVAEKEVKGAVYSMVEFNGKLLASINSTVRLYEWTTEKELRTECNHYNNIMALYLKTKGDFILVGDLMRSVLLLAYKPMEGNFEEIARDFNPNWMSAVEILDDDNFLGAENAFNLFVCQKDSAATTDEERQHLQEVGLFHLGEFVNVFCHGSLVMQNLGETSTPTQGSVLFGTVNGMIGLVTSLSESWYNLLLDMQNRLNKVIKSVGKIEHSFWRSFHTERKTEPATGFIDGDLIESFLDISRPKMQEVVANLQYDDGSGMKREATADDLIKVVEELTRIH

With `C[C@@H]1CN(c2ccc(C#N)c(Cl)c2)[C@@H](C)CN1C(=O)c1cnc(N2CCC(CN3CCC(n4ncc5c(N6CCC(=O)NC6=O)cncc54)CC3)CC2)cn1` [EAR150, 2-Chloro-4-((2S,5R)-4-(5-(4-((4-(4-(2,4-dioxotetrahydropyrimidin-1(2H)-yl)-1H-pyrazolo[3,4-c]pyridin-1-yl)piperidin-1-yl)methyl)piperidin-1-yl)pyrazine-2-carbonyl)-2,5-dimethylpiperazin-1-yl)benzonitrile], the Dmax is no less than 50%.

For `N#Cc1ccc(O[C@H]2CC[C@H](NC(=O)c3ccc4c(c3)CCN(C(=O)CN3CCC(n5ccc6c(N7CCC(=O)NC7=O)cccc65)CC3)C4)CC2)cc1Cl` [AR5, N-((1r,4r)-4-(3-Chloro-4-cyanophenoxy)cyclohexyl)-2-(2-(4-(4-(2,4-dioxotetrahydropyrimidin-1(2H)-yl)-1H-indol-1-yl)piperidin-1-yl)acetyl)-1,2,3,4-tetrahydroisoquinoline-6-carboxamide], the Dmax is no less than 50%.

For the molecule `C[C@@H]1CN(c2ccc(C#N)c(Cl)c2)[C@@H](C)CN1C(=O)Nc1ccc(N2CCC(CN3CCC(n4ccc5c(N6CCC(=O)NC6=O)cccc54)CC3)CC2)nc1` [EAR108, (2R,5S)-4-(3-Chloro-4-cyanophenyl)-N-(6-(4-((4-(4-(2,4-dioxotetrahydropyrimidin-1(2H)-yl)-1H-indol-1-yl)piperidin-1-yl)methyl)piperidin-1-yl)pyridin-3-yl)-2,5-dimethylpiperazine-1-carboxamide], the Dmax was no less than 50%.

On to `C[C@@H]1CN(C(=O)Nc2ccc(N3CCC(CCN4CCC(n5ncc6c(N7CCC(=O)NC7=O)cncc65)CC4)CC3)nc2)[C@@H](C)CN1c1ccc(C#N)c(Cl)c1.O=CO` [EAR133, (2S,5R)-4-(3-Chloro-4-cyanophenyl)-N-(6-(4-(2-(4-(4-(2,4-dioxotetrahydropyrimidin-1(2H)-yl)-1H-pyrazolo[3,4-c]pyridin-1-yl)piperidin-1-yl)ethyl)piperidin-1-yl)pyridin-3-yl)-2,5-dimethylpiperazine-1-carboxamide, formic acid salt], for which the “mean relative pDC50” value was determined as 5.94 and the Dmax is no less than 50%.

In the case of `CN(c1ccc(C#N)c(Cl)c1)[C@H]1CC[C@H](NC(=O)c2ccc(N3CCC(CN4CCC(n5ccc6c(N7CCC(=O)NC7=O)cc(F)cc65)CC4)CC3)nn2)CC1` [EAR201, N-((1r,4r)-4-((3-Chloro-4-cyanophenyl)(methyl)amino)cyclohexyl)-6-(4-((4-(4-(2,4-dioxotetrahydropyrimidin-1(2H)-yl)-6-fluoro-1H-indol-1-yl)piperidin-1-yl)methyl)piperidin-1-yl)pyridazine-3-carboxamide hydrochloride], the Dmax is no less than 50%.

On to `N#Cc1ccc(O[C@H]2CC[C@H](NC(=O)c3ccc(N4CCC(CN5CC[C@@H](n6ccc7c(N8CCC(=O)NC8=O)cccc76)C5)CC4)nn3)CC2)cc1Cl` [EAR172, N-((1r,4r)-4-(3-Chloro-4-cyanophenoxy)cyclohexyl)-6-(4-(((S)-3-(4-(2,4-dioxotetrahydropyrimidin-1(2H)-yl)-1H-indol-1-yl)pyrrolidin-1-yl)methyl)piperidin-1-yl)pyridazine-3-carboxamide, hydrochloride], for which the Dmax is no less than 50%.

Regarding `CC1(C)C(=O)N(c2ccc(C#N)c(C(F)(F)F)c2)C(=S)N1c1ccc(OCCCN2CCC(n3ccc4c(N5CCC(=O)NC5=O)cccc43)CC2)cc1` [EAR103, 4-(3-(4-(3-(4-(4-(2,4-Dioxotetrahydropyrimidin-1(2H)-yl)-1H-indol-1-yl)piperidin-1-yl)propoxy)phenyl)-4,4-dimethyl-5-oxo-2-thioxoimidazolidin-1-yl)-2-(trifluoromethyl)benzonitrile formate], the Dmax was no less than 50%.

As to `CC1CC(CN2CCC(n3ncc4c(N5CCC(=O)NC5=O)cccc43)CC2)CN1c1ccc(C(=O)N[C@H]2CC[C@H](Oc3ccc(C#N)c(Cl)c3)CC2)nn1` (stereo partly shown) [EAR232, N-((1r,4r)-4-(3-chloro-4-cyanophenoxy)cyclohexyl)-6-(4-((4-(4-(2,4-dioxotetrahydropyrimidin-1(2H)-yl)-1H-indazol-1-yl)piperidin-1-yl)methyl)-2-methylpyrrolidin-1-yl)pyridazine-3-carboxamide], the Dmax is no less than 50%.

In the case of `N#Cc1ccc(O[C@H]2CC[C@H](NC(=O)c3ccc(N4CCC(CN5CCC(n6ncc7c(N8CCC(=O)NC8=O)cccc76)CC5)C4)nn3)CC2)cc1Cl` (stereo partly shown) [EAR152, N-((1r,4r)-4-(3-Chloro-4-cyanophenoxy)cyclohexyl)-6-(3-((4-(4-(2,4-dioxotetrahydropyrimidin-1(2H)-yl)-1H-indazol-1-yl)piperidin-1-yl)methyl)pyrrolidin-1-yl)pyridazine-3-carboxamide, formic acid salt], the Dmax is no less than 50%.

As to `N#Cc1ccc(O[C@H]2CC[C@H](NC(=O)c3ccc(N4CCN(C[C@H]5CC[C@H](n6ccc7c(N8CCC(=O)NC8=O)cccc76)CC5)CC4)nn3)CC2)cc1Cl` [AR215, N-((1r,4r)-4-(3-Chloro-4-cyanophenoxy)cyclohexyl)-6-(4-(((1r,4r)-4-(4-(2,4-dioxotetrahydropyrimidin-1(2H)-yl)-1H-indol-1-yl)cyclohexyl)methyl)piperazin-1-yl)pyridazine-3-carboxamide hydrochloride], the Dmax is no less than 50%.

Consider `N#Cc1ccc(O[C@H]2CC[C@H](NC(=O)c3ccc(O[C@H]4CCN(C(=O)CN5CCC(n6ccc7c(N8CCC(=O)NC8=O)cccc76)CC5)C4)nn3)CC2)cc1Cl` [EAR188, N-((1r,4S)-4-(3-Chloro-4-cyanophenoxy)cyclohexyl)-6-(((S)-1-(2-(4-(4-(2,4-dioxotetrahydropyrimidin-1(2H)-yl)-1H-indol-1-yl)piperidin-1-yl)acetyl)pyrrolidin-3-yl)oxy)pyridazine-3-carboxamide], for which the Dmax is no less than 50%.

`N#Cc1ccc(O[C@H]2CC[C@H](NC(=O)c3cnc(N4CCC(CN5CCC(n6ccc7c(N8CCC(=O)NC8=O)cccc76)CC5)CC4)cn3)CC2)cc1C(F)(F)F` [EAR22, N-((1r,4r)-4-(4-Cyano-3-(trifluoromethyl)phenoxy)cyclohexyl)-5-(4-((4-(4-(2,4-dioxotetrahydropyrimidin-1(2H)-yl)-1H-indol-1-yl)piperidin-1-yl)methyl)piperidin-1-yl)pyrazine-2-carboxamide hydrochloride]: the Dmax is no less than 50%.

Consider `N#Cc1ccc(O[C@H]2CC[C@H](NC(=O)c3ccc(N4CC5(CCC(CN6CCC(n7ncc8c(N9CCC(=O)NC9=O)cccc87)CC6)CO5)C4)nn3)CC2)cc1Cl` (stereo partly shown) [EAR218, N-((1r,4r)-4-(3-Chloro-4-cyanophenoxy)cyclohexyl)-6-(7-((4-(4-(2,4-dioxotetrahydropyrimidin-1(2H)-yl)-1H-indazol-1-yl)piperidin-1-yl)methyl)-5-oxa-2-azaspiro[3.5]nonan-2-yl)pyridazine-3-carboxamide], for which the Dmax is no less than 50%.

With `C[C@H]1CN(c2ccc(C(=O)N[C@H]3CC[C@H](Oc4ccc(C#N)c(Cl)c4)CC3)nn2)CC[C@H]1CN1CCC(n2ncc3c(N4CCC(=O)NC4=O)cccc32)CC1` [EAR227, N-((1r,4R)-4-(3-chloro-4-cyanophenoxy)cyclohexyl)-6-((3R,4R)-4-((4-(4-(2,4-dioxotetrahydropyrimidin-1(2H)-yl)-1H-indazol-1-yl)piperidin-1-yl)methyl)-3-methylpiperidin-1-yl)pyridazine-3-carboxamide], the Dmax was no less than 50%.

Turning to `CC(C)n1ccc2c(N3CCC(=O)NC3=O)cc(C(=O)N3CCN(CCCOc4ccc(N5C(=S)N(c6ccc(C#N)c(C(F)(F)F)c6)C(=O)C5(C)C)cc4)CC3)cc21` [EAR94, 4-(3-(4-(3-(4-(4-(2,4-Dioxotetrahydropyrimidin-1(2H)-yl)-1-isopropyl-1H-indole-6-carbonyl)piperazin-1-yl)propoxy)phenyl)-4,4-dimethyl-5-oxo-2-thioxoimidazolidin-1-yl)-2-(trifluoromethyl)benzonitrile formate], the Dmax was no less than 50%.

For `CC(C)n1ccc2c(N3CCC(=O)NC3=O)cc(C(=O)N(C)CC3CCN(CC4CCN(c5ccc(N6C(=S)N(c7ccc(C#N)c(C(F)(F)F)c7)C(=O)C6(C)C)cc5)CC4)CC3)cc21` [EAR89, N-((1-((1-(4-(3-(4-Cyano-3-(trifluoromethyl)phenyl)-5,5-dimethyl-4-oxo-2-thioxoimidazolidin-1-yl)phenyl)piperidin-4-yl)methyl)piperidin-4-yl)methyl)-4-(2,4-dioxotetrahydropyrimidin-1(2H)-yl)-1-isopropyl-N-methyl-1H-indole-6-carboxamide], the Dmax was no less than 50%.

Turning to `C[C@@H]1CN(C(=O)Nc2ccc(N3CCC(CCN4CCC(n5ncc6c(N7CCC(=O)NC7=O)cccc65)CC4)CC3)nc2)[C@@H](C)CN1c1ccc(C#N)c(Cl)c1` [EAR132, (2S,5R)-4-(3-Chloro-4-cyanophenyl)-N-(6-(4-(2-(4-(4-(2,4-dioxotetrahydropyrimidin-1(2H)-yl)-1H-indazol-1-yl)piperidin-1-yl)ethyl)piperidin-1-yl)pyridin-3-yl)-2,5-dimethylpiperazine-1-carboxamide, formic acid salt], the Dmax was no less than 50%.

Consider `N#Cc1ccc(O[C@H]2CC[C@H](NC(=O)c3ccc(N4CCCC(N5CCC(n6ccc7c(N8CCC(=O)NC8=O)cccc76)CC5)C4)cc3)CC2)cc1Cl` (stereo partly shown) [EAR28, N-((1r,4r)-4-(3-Chloro-4-cyanophenoxy)cyclohexyl)-4-(4-(4-(2,4-dioxotetrahydropyrimidin-1(2H)-yl)-1H-indol-1-yl)-[1,3′-bipiperidin]-1′-yl)benzamide], for which the Dmax was no less than 50%.
